Results on one sequence are retold here after patent US20230321187A1, “OCTOPUS-DERIVED PEPTIDE OCTOPROMYCIN HAVING ANTIBACTERIAL AND ANTI-BIOFILM ACTIVITY AGAINST ACINETOBACTER BAUMANNII” (priority 2020, published 2023).

“Also recorded” adds a separate entry of the source. Where no end group is shown, it is not given here.

Data set [1] relates to A. baumannii. In words: Time-kill kinetics (OD 595 nm). The format is cell-based, Acinetobacter baumannii. The procedure: The MIC and MBC levels of octopromycin in A. baumannii were determined using media dilution tests and subcultures, respectively, according to the guidelines of the Clinical and Laboratory Standards Institute (CLSI, 2008 M27-A3). Several concentrations of octopromycin (0, 5, 10, 25, 50, 100, and 200 μg/mL) were tested as standard antibiotics (positive control) together with chloramphenicol (10 μg/mL, Sigma-Aldrich, USA) acting on A. baumannii growth and the MBC of chloramphenicol was confirmed according to the same procedure. The MIC was determined as the minimum concentration required to inhibit visual growth of A. baumannii. […] For analysis of time-kill kinetics, A. baumannii was cultured with octopromycin at various concentrations (0, 25, 50, 100, and 200 μg/mL) in the TSA medium at 25° C., and at different time intervals (0, 3, 6, 9, 12, 18, and 21 h), the absorbance was measured at 595 nm using a microplate reader (Bio-Rad, Saint Louis, USA) to confirm an inhibitory effect after culturing.

Data set [2] concerns A. baumannii. The format is cell-based. The conditions noted are these: Acinetobacter baumannii, 24 h, 200 μg/mL. The procedure:
A. baumannii was cultured in TSB (OD-0.25, 2.5 x 10^6 CFU/mL) and treated with octopromycin at various concentrations (0, 25, 50, 75, 100, 150, and 200 μg/mL). After culturing for 24 hours in a shaking incubator at 180 rpm at 25° C., A. baumannii was centrifuged at 3500 rpm for 10 minutes, and the cells were washed with PBS. For cell viability assay, A. baumannii cells reacted with 20 μL of an MTT reagent (Sigma Aldrich, USA) for 30 minutes, and the samples were resuspended in dimethylsulfoxide (Sigma Aldrich, USA). The cell viability was measured based on OD at 570 nm using a microplate reader (Bio-Rad, Saint Louis, USA).

The subject of data set [3] is A. baumannii. The experiment in a line: Propidium iodide (PI) uptake / FDA staining membrane permeability assay (CLSM). The format is cell-based, Acinetobacter baumannii. The procedure: Propidium iodide (PI) uptake assay was performed to evaluate an effect of octopromycin on association with the membrane permeability and apoptosis of A. baumannii. The PI was a red fluorescent nuclear and chromosome counter dye that indicated changes in cell membrane permeability, and was used to detect the presence of dead cells and simultaneously observe live cells by observing green fluorescence (FDA). A. baumannii treated with octopromycin at MIC; 50 μg/mL and MBC; 200 μg/mL levels and control cell suspensions were centrifuged (5000 rpm for 2 minutes), washed with PBS and the pellets were suspended in PBS. Subsequently, the cells were cultured with 20 μg/mL of PI (Sigma Aldrich, USA) and 8 μg/mL of FDA (Sigma Aldrich, USA) at 25° C. for 30 minutes in the dark, and finally, the remaining dye was washed with PBS. Finally, a 5 μL drop of each suspension was placed on a cover slip and fluorescence images were observed using a CLSM integrated with a scan head on an Axiovert 200M inverted microscope (Carl Zeiss, Germany).

Data set [4] can be described thus: MTT cytotoxicity assay in Raw 264.7 cells. The format is cell-based. The conditions noted are these: mouse, Raw 264.7 cells. The procedure:
(§1) To measure the cytotoxicity of octopromycin on HEK293T (American Type Culture Collection ATCC-11268) and Raw 264.7 cells, the cells were treated with octopromycin and cell viability was evaluated. The cells were harvested, counted and seeded at a density of […] per well in a 96-well plate and cultured for 24 hours at 37° C. and 5% CO2. The cells were treated with different concentrations of octopromycin (0 to 800 μg/mL) and cultured for 24 hours. After culturing, the culture medium was replaced with a fresh medium, and 10 μL of MTT (5 mg/mL) was added to each well and incubated in a CO2 incubator for 4 hours. The formed formazan crystals were dissolved in 50 μL of DMSO and absorbance was measured at 570 nm using a microplate reader (Bio-Rad Laboratories, Inc, USA). Cells treated with the medium (control) were considered as 100% viability (control group), and current viability was normalized and calculated for the untreated control group.

A further data set relates to Raw 264.7 cells. The experiment in a line: MTT cytotoxicity assay in Raw 264.7 cells. The format is cell-based. The procedure: as §1
In a further data set the test system is zebrafish embryos. The experiment in a line: Zebrafish embryo toxicity (mortality and teratogenicity). The format is in vivo. The procedure:
Wild-type (AB) adult zebrafish was maintained in an automated water circulation system at 28° C. under a photoperiod of 14 h (light): 10 h (dark). After zebrafish (to 4 months of age) was mated, embryos were collected at a 1 hours post fertilization (1 hpf) stage and rinsed with embryo water. First, the viability of newly fertilized embryos was identified under a stereoscopic microscope (Nikon, SMZ1000, Japan) before use in experiments. To determine toxicity levels at 24, 48, 72, and 96 hours after exposure, embryos at stages 1-2 hpf were exposed to various concentrations of octopromycin (0 to 8 μg/mL) for 96 hours.
In addition, to evaluate in vivo toxicity, the cumulative mortality of developing zebrafish embryos for 96 hours was calculated at octopromycin exposure (0, 0.25, 0.50, 1.00, 2.00, 4.00, and 8.00 μg/mL). […] However, concentration-dependent mortality patterns occurred by an increase in octopromycin concentration.

Data set [5] concerns A. baumannii. In words: Histological analysis of A. baumannii-infected zebrafish (H&E). The format is in vivo. The conditions noted are these: 48 hpe, vs A. baumannii-infected group. From the text: Two zebrafish were selected from each group at the 80% death stage (48 hpe) and the spleen, gills and kidneys were collected separately. Structural changes in A. baumannii-infected zebrafish treated with octopromycin were confirmed by histological analysis. Briefly, two fish from each group (control group, A. baumannii-infected group and octopromycin-treated group) were anesthetized with excess tricaine and the spleen, gills, and kidneys were surgically removed. Each tissue was immersed in PBS and fixed in 10% neutral buffered formalin. After a 12-hour washing step, tissues were dehydrated using a graded series of alcohols in a semi-closed benchtop tissue processor (Leica® TP1020, Germany). The dehydrated tissues were paraffin-embedded (Leica®EG1150 Tissue Embedding Center, Germany), sectioned at […] (Leica®RM2125 microtome, Germany), and stained with Hematoxylin and Eosin (H & E) (Sigma, Aldrich). The stained tissues of each group were imaged using a digital camera (LEICA®DCF450-C, Germany) connected to a microscope (LEICA®DM 3000 LED).

Turning to “RRLIRTDTGPIIYDYFKDQLLKKGMVILRESMKNLKGM [octopromycin]”, the “growth inhibition (time-kill kinetics)” value was “partial growth inhibition” with A. baumannii [1] (25 μg/mL, up to 12 hours) and “clear growth inhibition” in the data set on A. baumannii [1] (at a MIC concentration or less, 25° C., OD 595 nm). In addition, the “cell viability of A. baumannii” value in the data set with A. baumannii [2] came out at 1.54%. Also, the results for the “membrane permeability (PI/FDA staining)” value in the data set on A. baumannii [3] (MBC (200 μg/mL)) and with A. baumannii [3] (MIC (50 μg/mL)) were “almost all A. baumannii cells showed red fluorescence signals” and “more PI-stained red fluorescent cells”, respectively. The viability at 24 h, 400 µg/mL in data set [4] (Raw 264.7, 400 μg/mL, 24 hours, read-out: cell viability) was found to be 80%. Besides, in data set [4] (Raw 264.7, concentration not stated, read-out: cells alive), the viability at 24 h is at least 85%. Besides, the cell viability result with Raw 264.7 cells (Raw 264.7, >400 μg/mL) is reported as “significantly reduced”. For the same sequence, in the data set on Raw 264.7 cells (Raw 264.7, MBC level (200 μg/mL)), the toxic effect result is listed as “no toxic effect”. For the same sequence, the embryo mortality entry is given as “no embryo mortality” in the data set with zebrafish embryos (0.25 μg/mL, 96 hours exposure) and 100% in the data set with zebrafish embryos (8.0 μg/mL, 24 hpe). Moreover, the “toxicity to zebrafish embryos” value in the data set on zebrafish embryos (4 μg/mL) is reported as “not toxic”. The sequence also yielded a maximum non-lethal concentration in the data set on zebrafish embryos (zebrafish embryos, no abnormal appearance) of 4 µg/mL. Besides, the “histology of kidney, spleen and gills” value in the data set on A. baumannii [5] was “tissue disorders and pathological damage were reduced overall; also recorded: tissue disorders and pathological damage were reduced in all tissues”.
